Data from PubChem BioAssay (NCI).
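A five-concentration, 48-hour dose response in 96-well plates underlies each endpoint, interpolated linearly between surrounding concentrations. GI50 = concentration required for 50% inhibition of growth. TGI: concentration producing complete growth inhibition.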 Where a SMILES comes first, the peptide text is derived from it. The star is where a group is joined. ONb = O=[N+]([O-])c1ccc(CO*)cc1; Boc = CC(C)(C)OC(=O)*

Legend:
Experiment in all cases: NCI anticancer screen, dose series, 48 h
RPMI-8226 leukemia = tested on: RPMI-8226 leukemia
M19-MEL melanoma = tested on: M19-MEL melanoma
SF-268 CNS = tested on: SF-268 CNS
NCI-H460 lung = tested on: NCI-H460 lung
HCT-15 colon = tested on: HCT-15 colon
MOLT-4 leukemia = tested on: MOLT-4 leukemia
DMS 114 small cell lung = tested on: DMS 114 small cell lung
EKVX NSCLC = tested on: EKVX NSCLC
HOP-92 NSCLC = tested on: HOP-92 NSCLC
ACHN renal = tested on: ACHN renal
TK-10 renal = tested on: TK-10 renal

| Structure (SMILES) | TGI (RPMI-8226 leukemia) [µM] | TGI (M19-MEL melanoma) [µM] | TGI (SF-268 CNS) [µM] | TGI (NCI-H460 lung) [µM] | TGI (HCT-15 colon) [µM] | TGI (MOLT-4 leukemia) [µM] | TGI (DMS 114 small cell lung) [µM] | TGI (EKVX NSCLC) [µM] | TGI (HOP-92 NSCLC) [µM] | TGI (ACHN renal) [µM] | TGI (TK-10 renal) [µM] | GI50 (ACHN renal) [µM] | GI50 (RPMI-8226 leukemia) [µM] | GI50 (SF-268 CNS) [µM] | GI50 (TK-10 renal) [µM] | GI50 (NCI-H460 lung) [µM] | GI50 (HCT-15 colon) [µM] | GI50 (MOLT-4 leukemia) [µM] | GI50 (EKVX NSCLC) [µM] | GI50 (HOP-92 NSCLC) [µM] |
| --- | --- | --- | --- | --- | --- | --- | --- | --- | --- | --- | --- | --- | --- | --- | --- | --- | --- | --- | --- | --- |
| Cc1c2cnccc2c(C)c2c1c1ccccc1n2CCCCCCNCc1ccccc1 | 3.44 | 3.95 | 2.76 | 1.86 | 3.25 | 0.7 | 3.94 | 3.94 | 3.64 |  |  |  |  |  |  |  |  |  |  |  |
| CC(C)CC(NC(=O)OC(C)(C)C)C(=O)NC(CCC(=O)OCc1ccc([N+](=O)[O-])cc1)C(=O)OCc1ccc([N+](=O)[O-])cc1 (stereo not drawn) (Boc-Leu-Glu(ONb)-ONb; configuration not given here) | 88.4 |  | 39.3 | 56.1 | > 100 | 39.8 |  | > 100 | > 100 | > 100 | > 100 |  |  |  |  |  |  |  |  |  |
| CC(=C(C(N)=O)C(N)=O)C1C=C(c2cccs2)CC(c2ccc(Cl)cc2)=C1O (centres undefined) | > 100 |  | > 100 | > 100 | > 100 | > 100 |  | > 100 | > 100 | > 100 | > 100 |  |  |  |  |  |  |  |  |  |
| O=c1oc2cc(O)ccc2c(O)c1C(c1cccnc1)c1c(O)c2ccc(O)cc2oc1=O | > 100 |  | > 100 | > 100 | > 100 | > 100 |  | > 100 | > 100 | > 100 | > 100 |  |  |  |  |  |  |  |  |  |
| O=C1/C(=C/c2ccc(Cl)cc2)N=C(c2ccccc2)N1CCc1cccs1 | 83.4 |  | > 100 | > 100 | > 100 | > 100 |  | > 100 | 38.5 | > 100 | > 100 | 28.8 | 14.5 | 31.7 | 27.9 | 20.1 | 19.3 | 16.5 | 13.8 | 3.49 |
| Brc1ccc2c([C@H]3CN[C@@H](c4c[nH]c5cc(Br)ccc45)CN3)c[nH]c2c1 | 7.15 |  | 20.4 | 4.15 | 11.2 | 6.48 |  | 23.2 | 12.2 | 9.87 | 18.5 |  |  |  |  |  |  |  |  |  |
| Cc1noc2nnn(-c3ccc(Cl)cc3)c(=O)c12 | 3.11 |  | 22.1 | 21.3 | 10.3 | 1.94 |  | 20.4 | 17.9 | 15.1 | 21.8 |  |  |  |  |  |  |  |  |  |
| O=C(/C=C/c1cc(O)c(O)cc1O)OCCc1ccccc1 | > 46 |  | 38.6 | > 100 | 54.7 | 11.7 |  | > 95.6 | 20.5 | 26.8 | 17.6 |  |  |  |  |  |  |  |  |  |
| CCCCCCCCCCCCOP(=O)(O)OCC(N)C(=O)O (centres undefined) | 68.5 |  | > 100 | 43.2 | 36.6 | 36.2 |  | > 100 | 43.3 | > 100 | 53 |  |  |  |  |  |  |  |  |  |
| CCOC(=O)NC(NC1=NCCS1)(C(=O)OCC)C(F)(F)F (centres undefined) | > 100 |  | > 100 | > 100 | > 100 | > 100 |  | > 100 | > 100 | > 100 | > 100 |  |  |  |  |  |  |  |  |  |
| CC1C2CC(C(S(=O)(=O)N3CCOCC3)/C2=N\O)C1(C)C (centres undefined) | > 100 |  | > 100 | > 100 | > 100 | > 100 |  | > 100 | > 100 | > 100 | > 100 |  |  |  |  |  |  |  |  |  |
| CC(=O)N(O)[C@@H]1CC[C@H](n2cnc3c(N)ncnc32)C1 | > 100 |  | > 100 | > 100 | > 100 | > 100 |  | > 100 | > 100 | > 100 | > 100 |  |  |  |  |  |  |  |  |  |
| COC(=O)/C=C/c1ccc2c(c1)CC1(C2)Cc2cc3c(cc2C1=O)CCC3 (centres undefined) | > 100 |  | > 100 | > 100 | > 100 | > 100 |  | > 100 | > 100 | > 100 | > 100 |  |  |  |  |  |  |  |  |  |
| CCN1CCN(c2nc3ccc([N+](=O)[O-])cc3nc2C(=O)c2ccccc2)CC1 | 30.9 |  | 38 | 51.4 | 25 | > 100 |  | 29.6 | 32.7 | 29.3 | 34.2 |  |  |  |  |  |  |  |  |  |
| CN(C)c1ccccc1CN1CCCN(Cc2ccccc2N(C)C)C1c1ccncc1 | 32.1 |  | 37.9 | 28.5 | 51.7 | 43.6 |  | 38 | 14.8 | 99.2 | 28.4 |  |  |  |  |  |  |  |  |  |
| COC(=O)C1CCC(=O)N1C(c1ccc(OC)cc1)c1ccc(OC)cc1 (centres undefined) | > 100 |  | > 100 | > 100 | > 100 | > 100 |  | > 100 | > 100 | > 100 | > 100 |  |  |  |  |  |  |  |  |  |

| Structure (SMILES) | TGI (RPMI-8226 leukemia) [µM] | TGI (M19-MEL melanoma) [µM] | TGI (SF-268 CNS) [µM] | TGI (NCI-H460 lung) [µM] | TGI (HCT-15 colon) [µM] | TGI (MOLT-4 leukemia) [µM] | TGI (DMS 114 small cell lung) [µM] | TGI (EKVX NSCLC) [µM] | TGI (HOP-92 NSCLC) [µM] | TGI (ACHN renal) [µM] | TGI (TK-10 renal) [µM] | GI50 (ACHN renal) [µM] | GI50 (RPMI-8226 leukemia) [µM] | GI50 (SF-268 CNS) [µM] | GI50 (TK-10 renal) [µM] | GI50 (NCI-H460 lung) [µM] | GI50 (HCT-15 colon) [µM] | GI50 (MOLT-4 leukemia) [µM] | GI50 (EKVX NSCLC) [µM] | GI50 (HOP-92 NSCLC) [µM] |
| --- | --- | --- | --- | --- | --- | --- | --- | --- | --- | --- | --- | --- | --- | --- | --- | --- | --- | --- | --- | --- |
| O=C(/C=C/c1ccc(/C=C/C(=O)c2ccc(O)cc2)cc1)c1ccc(O)cc1 | > 100 |  | > 100 | > 100 | > 100 | > 100 |  | > 100 | > 100 | > 100 | > 100 |  |  |  |  |  |  |  |  |  |
| CN1CCC(CN2c3ccccc3Sc3ccccc32)CC1 | 30.7 | 26.4 | 29 | 28.5 | 32.4 | 32.9 | 29.8 | 27.5 | 17.6 | 29.7 | 29.2 |  |  |  |  |  |  |  |  |  |
| Cc1cc(Cc2c(F)c(F)c(C(c3cc(C)no3)c3c(F)c(F)c(F)c(F)c3F)c(F)c2F)on1 (centres undefined) | > 100 |  | > 100 | > 100 | > 100 | > 100 |  | > 100 | > 100 | > 100 | > 100 |  |  |  |  |  |  |  |  |  |
| CSCCCNC(=O)c1csc(-c2csc(C(CNC(=O)OC(C)(C)C)CNC(=O)OC(C)(C)C)n2)n1 | 41.7 |  | > 100 | > 100 | > 100 | 43.9 |  | > 100 | > 100 | > 100 | > 100 |  |  |  |  |  |  |  |  |  |
| Cc1ccc(O)c(-c2cc(-c3cccc(Cl)c3)c(C#N)c(N)n2)c1 | 48.4 |  | 51.3 | 54 | 28 | 38.6 |  | 58.9 | 48.1 | 42.1 | 44.6 |  |  |  |  |  |  |  |  |  |
| COc1cc(C2C(C(=O)O)=C(COC(C)=O)Oc3cc4c(cc32)OCO4)cc(OC)c1OC (centres undefined) | > 100 | > 100 |  | > 100 | > 100 | > 100 | > 100 | > 100 |  | > 100 | > 100 |  |  |  |  |  |  |  |  |  |
| COC(=O)c1ccc(C)cc1/C=C1\Cc2ccc(C)cc2C1=O | 39.6 |  | 48.4 | > 100 | 43.1 | > 100 |  | 88.4 | 35.2 | > 100 | 42.4 |  |  |  |  |  |  |  |  |  |
| O=C(Cc1nccc2c1[nH]c1ccccc12)OC1C#CCSCC#C/C=C\1 (centres undefined) | > 100 |  | > 100 | > 100 | > 100 | > 100 |  | > 100 | > 100 | > 100 | > 100 |  |  |  |  |  |  |  |  |  |
| N#Cc1c(N)sc2c1-c1ccccc1OC2 | > 100 |  | > 100 | > 100 | > 100 | > 100 |  | 31 | > 100 | > 100 | > 100 |  |  |  |  |  |  |  |  |  |
| CSc1c(C#N)c(N)nc2c(N=Nc3ccc(Cl)cc3)c(N)nn12 | 7.12 |  | 5.7 | > 45.6 | 5.5 | 5.47 |  | 11.4 | 8.64 | 12.4 | 26.8 |  |  |  |  |  |  |  |  |  |
| CCSc1cc(=O)n(C)c(=O)n1C | > 100 |  | > 100 | > 100 | > 100 | > 100 |  | > 100 | > 100 | > 100 | > 100 |  |  |  |  |  |  |  |  |  |
| Nc1nc(N)c2ncn(Cc3ccccc3CCl)c2n1 | > 100 |  | > 100 | > 100 | > 100 | > 100 |  | > 100 | > 100 | > 100 | > 100 |  |  |  |  |  |  |  |  |  |
| O=C1CCC(=O)N1n1c(Cc2ccc(Cl)cc2)n[nH]c1=O | > 100 |  | > 100 | > 100 | > 100 | > 100 |  | > 100 | > 100 | > 100 | > 100 |  |  |  |  |  |  |  |  |  |
| CC(C)(C)c1cc(C2=NN(c3ccccc3)C(c3ccccc3)C2)cc(C(C)(C)C)c1O (centres undefined) | > 100 |  | > 100 | > 100 | > 100 | > 100 |  | > 100 | > 100 | > 100 | > 100 |  |  |  |  |  |  |  |  |  |
| N#CCCN(CCC#N)c1ccc(/C=C2\N=C(c3ccccc3)N(NC(N)=S)C2=O)cc1 | > 100 |  | > 100 | > 100 | > 100 | > 100 |  | > 100 | > 100 | > 100 | > 100 |  |  |  |  |  |  |  |  |  |
| C#CC1(O)C(COP(=O)(O)OCC2OC(n3ccc(NCCCCCCCCCCCCCCCCCC)nc3=O)C(O)C2O)OC(n2ccc(N)nc2=O)C1O (centres undefined) | > 73.8 |  | 38.1 | 34.4 | 36.6 | 40 |  | 54.1 | 59.8 | > 53.3 | 19.1 |  |  |  |  |  |  |  |  |  |
